Test results as given in patent publication US20150239889A1, “PYRAZOLOPYRIMIDINE COMPOUND” (MITSUBISHI TANABE PHARMA CORPORATION, priority 2012, published 2015).
pIC50: −log10 of the molar value.

Columns and labels:
Hep3B cells = experiment: EPO production assay (ELISA of culture supernatant); type: cell-based; conditions: Homo sapiens, 3 μmol/L test compound, 48 hours, relative to control (0.1% DMSO), read-out: EPO production stimulation rate with 3 μmol/L test compound
Procedure: The stimulatory effect of the compound onEPO production was determined as follows using Hep3B cells.
Cells were seeded on 96 well plates at 40000 cells/well, and the plate was incubated overnight in MEM medium containing 10% fetal bovine serum (FBS) at 37° C. under 5% CO2. The next day, the medium was replaced with MEM containing 0.5% FBS, followed by addition of test compound. The test compound was dissolved in dimethyl sulfoxide and added to the cell so that the final concentration of dimethyl sulfoxide was 0.1%. After incubation for additional 48 hours, the culture supernatant was collected, and EPO contained in the supernatant was determined using ELISA kit (EPO ELISA Kit 11-693-417-001, Roche Co.). The results were expressed as stimulation rate of EPO production (fold), which was calculated as the relative value of the EPO production with 3 μmol/L of the test compound compared to the EPO production without stimulation (control).
Stimulation rate of EPO production (fold)=(EPO production with addition of test compound)/(EPO production of control)

human HIF-PHD2 = biological target: T1, human HIF-PHD2 (Homo sapiens, UniProt Q9GZT9); experiment: HIF-PHD inhibition assay (fluorescence polarization), human HIF-PHD2; type: biochemical; conditions: 2-oxoglutaric acid 3.33 μmol/L
T1 construct: purchased CrystalGenomics Ltd
T1 sequence (Q9GZT9 2-426 limits assumed): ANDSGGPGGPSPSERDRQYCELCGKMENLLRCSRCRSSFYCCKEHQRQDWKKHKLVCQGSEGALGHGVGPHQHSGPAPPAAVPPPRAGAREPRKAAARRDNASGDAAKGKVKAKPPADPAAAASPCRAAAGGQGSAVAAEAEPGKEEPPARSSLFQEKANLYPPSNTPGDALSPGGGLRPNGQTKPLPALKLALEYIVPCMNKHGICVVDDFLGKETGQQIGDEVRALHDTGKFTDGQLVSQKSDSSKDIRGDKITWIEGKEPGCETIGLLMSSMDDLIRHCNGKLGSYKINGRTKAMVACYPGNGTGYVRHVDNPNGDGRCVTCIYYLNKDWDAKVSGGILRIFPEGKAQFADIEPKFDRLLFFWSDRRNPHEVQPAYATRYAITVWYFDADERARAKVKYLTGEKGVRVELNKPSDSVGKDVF
Summary of the method: (§1)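 Compounds tested for enzyme inhibition by fluorescence polarization. Subtracting the reading taken before enzyme addition from the post-addition reading gave activity in mP.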

human HIF-PHD3 = biological target: T2, human HIF-PHD3 (Homo sapiens, UniProt Q9H6Z9); experiment: HIF-PHD inhibition assay (fluorescence polarization), human HIF-PHD3; type: biochemical; conditions: 2-oxoglutaric acid 166 μmol/L
T2 construct: purchased CrystalGenomics Ltd
T2 sequence (Q9H6Z9 whole entry): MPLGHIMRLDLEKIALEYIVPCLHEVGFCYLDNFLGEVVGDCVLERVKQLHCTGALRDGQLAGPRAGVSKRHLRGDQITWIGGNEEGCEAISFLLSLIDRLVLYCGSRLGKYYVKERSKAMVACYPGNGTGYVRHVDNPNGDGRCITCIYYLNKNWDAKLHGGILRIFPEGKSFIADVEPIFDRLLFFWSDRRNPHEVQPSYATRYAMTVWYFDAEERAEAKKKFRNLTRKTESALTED
Summary of the method: as §1

SMILES | pIC50 (human HIF-PHD2) | pIC50 (human HIF-PHD3) | fold induction at 3 µM (Hep3B cells)
O=C(O)c1cnn(-c2nc(O)c3nn(CCc4ccc5ccccc5c4)cc3n2)c1 [Example 243] | 7.24 | 6.59 | 1.6
O=C(O)c1cnn(-c2nc(O)c3c(cnn3CCC3CCCCC3)n2)c1 [Example 160] | 7.15 | 6.42 | 3.6
O=C(O)c1cnn(-c2nc(O)c3c(cnn3CC3CCCCCC3)n2)c1 [Example 158] | 7.62 | 6.51 | 1.2
O=C(O)c1cnn(-c2nc(O)c3c(cnn3C[C@H]3CC[C@H](c4ccc(Cl)cc4)CC3)n2)c1 [Example 156] | 7.70 | 6.80 | 24
O=C(O)c1cnn(-c2nc(O)c3c(cnn3CCc3ccc4ccccc4c3)n2)c1 [Example 116] | 7.68 | 6.72 | 4
O=C(O)c1cnn(-c2nc(O)c3c(cnn3Cc3ccc(Cl)cc3)n2)c1 [Example 13] | 7.70 | 6.64 | 4.3
O=C(O)c1cnn(-c2nc(O)c3c(cnn3C[C@H]3CC[C@@H](Oc4ccc(F)cc4)CC3)n2)c1 [Example 150] | 7.41 | 6.39 | 9
O=C(O)c1cnn(-c2nc(O)c3c(cnn3C[C@H]3CC[C@@H](C(F)(F)F)CC3)n2)c1 [Example 138] | 6.80 | 6.22 | 2.9
C[C@@H](c1ccc(-c2ccccc2)cc1)n1ncc2nc(-n3cc(C(=O)O)cn3)nc(O)c21 [Example 110] | 7.57 | 7.20 | 56
CC[C@@H](c1ccccc1)n1ncc2nc(-n3cc(C(=O)O)cn3)nc(O)c21 [Example 24] | 7.36 | 6.00 | 2.8
O=C(O)c1cnn(-c2nc(O)c3c(cnn3Cc3cccc(-c4cccc(F)c4)c3)n2)c1 [Example 44] | 7.31 | 6.41 | 4.9
O=C(O)c1cnn(-c2nc(O)c3c(cnn3CCCOc3ccc(Cl)c(C(F)(F)F)c3)n2)c1 [Example 177] | 7.55 | 6.77 | 9.1
C[C@@H](c1ccc(F)cc1)n1ncc2nc(-n3cc(C(=O)O)cn3)nc(O)c21 [Example 18] | 7.46 | 6.35 | 5.6
Cc1ccc(OC(C)(C)Cn2ncc3nc(-n4cc(C(=O)O)cn4)nc(O)c32)c2c1CCC2 [Example 211] | 7.59 | 6.74 | 8.9
Cc1nn([C@@H](C)c2ccc3ccccc3c2)c2c(O)nc(-n3cc(C(=O)O)cn3)nc12 [Example 454] | 7.52 | 6.14 | 2.7
Cc1cccc(C)c1-c1ccc(Cn2ncc3nc(-n4cc(C(=O)O)cn4)nc(O)c32)cc1 [Example 68] | 7.64 | 6.80 | 9.5
Cc1nn(CCC2CCCC2)c2c(O)nc(-n3cc(C(=O)O)cn3)nc12 [Example 476] | 7.44 | 6.24 | 2.7
COc1cc(Cn2ncc3nc(-n4cc(C(=O)O)cn4)nc(O)c32)ccc1-c1c(F)cccc1F [Example 97] | 7.47 | 6.52 | 5.2
O=C(O)c1cnn(-c2nc(O)c3c(cnn3CC3(c4ccccc4)CCCCC3)n2)c1 [Example 124] | 7.26 | 6.03 | 3.4
CC(C)(Cc1ccc2ccccc2c1)Cn1ncc2nc(-n3cc(C(=O)O)cn3)nc(O)c21 [Example 133] | 6.96 | 6.43 | 3.9
Cc1cc(Cn2ncc3nc(-n4cc(C(=O)O)cn4)nc(O)c32)ccc1-c1ccccc1F [Example 94] | 7.19 | 6.52 | 17
CC(C)(C)c1ccc(OCCn2ncc3nc(-n4cc(C(=O)O)cn4)nc(O)c32)cc1 [Example 204] | 7.72 | 6.19 | 12
CCC(c1ccc(C(F)(F)F)cc1)n1ncc2nc(-n3cc(C(=O)O)cn3)nc(O)c21 (single isomer, unassigned) [Example 327] | 6.54 | 5.92 | 9.4
O=C(O)c1cnn(-c2nc(O)c3c(cnn3Cc3cc(C(F)(F)F)cc(Cl)c3F)n2)c1 [Example 4] | 7.57 | 6.11 | 1.7
O=C(O)c1cnn(-c2nc(O)c3c(cnn3CCC3CCN(c4ccc(C(F)(F)F)cc4)CC3)n2)c1 [Example 172] | 7.47 | 6.60 | 19
O=C(O)c1cnn(-c2nc(O)c3c(cnn3Cc3ccc(C(F)(F)F)c(Cl)c3)n2)c1 [Example 6] | 7.39 | 6.89 | 6.1
C[C@@H](c1ccc(C(F)(F)F)cc1)n1nc(F)c2nc(-n3cc(C(=O)O)cn3)nc(O)c21 [Example 439] | 7.66 | 6.26 | 5.3

The next compounds have a higher pIC50 (human HIF-PHD2) than those just listed; values first:

pIC50 (human HIF-PHD2) | pIC50 (human HIF-PHD3) | SMILES | fold induction at 3 µM (Hep3B cells)
7.77 | 6.80 | C[C@@H](c1ccc(Cl)c(Cl)c1)n1nc(F)c2nc(-n3cc(C(=O)O)cn3)nc(O)c21 [Example 440] | 2.6
8.28 | 7.07 | COc1ccccc1-c1ccc([C@H](C)n2ncc3nc(-n4cc(C(=O)O)cn4)nc(O)c32)cc1 [Example 113] | 7.5
8.06 | 6.43 | O=C(O)c1cnn(-c2nc(O)c3nn(Cc4ccccc4-c4ccccc4)cc3n2)c1 [Example 241] | 1.2
7.92 | 6.74 | CCc1ccc2cc(CCn3ncc4nc(-n5cc(C(=O)O)cn5)nc(O)c43)ccc2c1 [Example 128] | 168
7.92 | 6.68 | O=C(O)c1cnn(-c2nc(O)c3c(cnn3CCCCc3ccc(Cl)cc3)n2)c1 [Example 165] | 15
8.04 | 6.92 | O=C(O)c1cnn(-c2nc(O)c3c(cnn3Cc3ccc(-c4cccc(F)c4F)cc3)n2)c1 [Example 76] | 6.9
7.92 | 6.74 | O=C(O)c1cnn(-c2nc(O)c3c(cnn3Cc3ccc(-c4ccccc4C(F)(F)F)cc3)n2)c1 [Example 61] | 6
8.28 | 6.48 | O=C(O)c1cnn(-c2nc(O)c3c(cnn3C[C@H]3CC[C@@H](Oc4ccccc4F)CC3)n2)c1 [Example 147] | 4
7.82 | 6.52 | O=C(O)c1cnn(-c2nc(O)c3c(n2)c(F)nn3Cc2ccc3ccccc3c2)c1 [Example 216] | 1.5
7.96 | 7.18 | COc1ccccc1-c1ccc(Cn2ncc3nc(-n4cc(C(=O)O)cn4)nc(O)c32)c(F)c1 [Example 85] | 4
7.77 | 6.66 | CC(C)(Cn1ncc2nc(-n3cc(C(=O)O)cn3)nc(O)c21)Oc1ccc2c(c1)CCCC2 [Example 214] | 6.8
7.77 | 6.46 | O=C(O)c1cnn(-c2nc(O)c3c(n2)c(F)nn3CCC2CCCCC2)c1 [Example 472] | 2.4
8.06 | 6.89 | O=C(O)c1cnn(-c2nc(O)c3c(cnn3Cc3ccc(-c4cc(F)ccc4F)cc3)n2)c1 [Example 77] | 9.8
7.89 | 6.96 | COc1cc(Cn2ncc3nc(-n4cc(C(=O)O)cn4)nc(O)c32)ccc1-c1ccccc1F [Example 96] | 6.8
7.85 | 6.57 | CC(C)[C@H]1CC[C@H](Cn2ncc3nc(-n4cc(C(=O)O)cn4)nc(O)c32)CC1 [Example 141] | 1.2
7.80 | 6.60 | C[C@@H](c1ccc(C(F)(F)F)cc1)n1nc(Cl)c2nc(-n3cc(C(=O)O)cn3)nc(O)c21 [Example 443] | 2.9
7.82 | 6.12 | C[C@H]1CC[C@H](Cn2nc(F)c3nc(-n4cc(C(=O)O)cn4)nc(O)c32)CC1 [Example 218] | 3
7.77 | 6.96 | CC(C)(Cn1ncc2nc(-n3cc(C(=O)O)cn3)nc(O)c21)Oc1ccc2ccccc2c1 [Example 213] | 6.4
7.74 | 6.60 | C[C@@H](c1cccc(-c2ccccc2)c1)n1ncc2nc(-n3cc(C(=O)O)cn3)nc(O)c21 [Example 54] | 5.6
8.26 | 7.00 | O=C(O)c1cnn(-c2nc(O)c3nn(C(c4ccc(Cl)cc4)c4ccc(Cl)cc4)cc3n2)c1 [Example 239] | 1.4
7.77 | 7.27 | O=C(O)c1cnn(-c2nc(O)c3c(cnn3C[C@H]3CC[C@H](Oc4ccc(F)cc4)CC3)n2)c1 [Example 149] | 22
